This is an account of results in ChEMBL document CHEMBL1201862, “PubChem BioAssay data set” (2004).

Assay [1] has as its target T1, Sentrin-specific protease 7 (Homo sapiens, UniProt Q9BQF6).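 Note: Luminescence-based dose-response confirmation of ultra-high-throughput screening hits, measuring inhibition of SENP7.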
T1 sequence (Q9BQF6 whole entry): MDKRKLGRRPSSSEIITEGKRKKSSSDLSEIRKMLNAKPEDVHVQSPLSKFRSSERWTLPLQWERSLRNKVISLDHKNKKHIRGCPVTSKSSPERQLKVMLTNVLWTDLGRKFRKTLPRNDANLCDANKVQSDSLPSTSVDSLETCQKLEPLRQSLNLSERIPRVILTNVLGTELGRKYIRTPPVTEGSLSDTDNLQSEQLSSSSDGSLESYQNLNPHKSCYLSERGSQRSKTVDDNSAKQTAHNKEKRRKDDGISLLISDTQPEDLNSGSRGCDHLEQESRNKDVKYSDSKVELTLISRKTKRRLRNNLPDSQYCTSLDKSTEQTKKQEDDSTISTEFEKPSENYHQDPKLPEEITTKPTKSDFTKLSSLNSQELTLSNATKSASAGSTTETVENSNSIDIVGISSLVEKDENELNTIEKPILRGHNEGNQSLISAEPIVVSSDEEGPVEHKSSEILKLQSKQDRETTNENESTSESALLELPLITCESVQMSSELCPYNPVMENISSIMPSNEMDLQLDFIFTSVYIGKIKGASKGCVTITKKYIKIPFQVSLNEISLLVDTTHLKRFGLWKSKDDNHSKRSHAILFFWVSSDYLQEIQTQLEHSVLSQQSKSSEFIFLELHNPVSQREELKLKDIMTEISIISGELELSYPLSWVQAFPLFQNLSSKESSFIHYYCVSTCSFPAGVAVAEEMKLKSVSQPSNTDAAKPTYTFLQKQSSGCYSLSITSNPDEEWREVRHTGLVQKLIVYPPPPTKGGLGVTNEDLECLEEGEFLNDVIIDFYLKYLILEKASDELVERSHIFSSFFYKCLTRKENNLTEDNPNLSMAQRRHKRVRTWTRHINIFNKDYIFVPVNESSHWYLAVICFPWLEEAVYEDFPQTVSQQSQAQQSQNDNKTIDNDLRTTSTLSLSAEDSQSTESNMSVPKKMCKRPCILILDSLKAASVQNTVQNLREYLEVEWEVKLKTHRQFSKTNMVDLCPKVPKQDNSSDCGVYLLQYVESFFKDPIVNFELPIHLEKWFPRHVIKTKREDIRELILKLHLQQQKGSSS
The class given is functional.

Assay [2] addresses Mitogen-activated protein kinase 8 (Homo sapiens, UniProt P45983). The class given is functional.
The target in assay [3] is Casein kinase I isoform alpha (Homo sapiens, UniProt P48729). The class given is functional.
The target of a further assay is T2, Insulin-degrading enzyme (Homo sapiens, UniProt P14735).
T2 sequence (P14735 whole entry): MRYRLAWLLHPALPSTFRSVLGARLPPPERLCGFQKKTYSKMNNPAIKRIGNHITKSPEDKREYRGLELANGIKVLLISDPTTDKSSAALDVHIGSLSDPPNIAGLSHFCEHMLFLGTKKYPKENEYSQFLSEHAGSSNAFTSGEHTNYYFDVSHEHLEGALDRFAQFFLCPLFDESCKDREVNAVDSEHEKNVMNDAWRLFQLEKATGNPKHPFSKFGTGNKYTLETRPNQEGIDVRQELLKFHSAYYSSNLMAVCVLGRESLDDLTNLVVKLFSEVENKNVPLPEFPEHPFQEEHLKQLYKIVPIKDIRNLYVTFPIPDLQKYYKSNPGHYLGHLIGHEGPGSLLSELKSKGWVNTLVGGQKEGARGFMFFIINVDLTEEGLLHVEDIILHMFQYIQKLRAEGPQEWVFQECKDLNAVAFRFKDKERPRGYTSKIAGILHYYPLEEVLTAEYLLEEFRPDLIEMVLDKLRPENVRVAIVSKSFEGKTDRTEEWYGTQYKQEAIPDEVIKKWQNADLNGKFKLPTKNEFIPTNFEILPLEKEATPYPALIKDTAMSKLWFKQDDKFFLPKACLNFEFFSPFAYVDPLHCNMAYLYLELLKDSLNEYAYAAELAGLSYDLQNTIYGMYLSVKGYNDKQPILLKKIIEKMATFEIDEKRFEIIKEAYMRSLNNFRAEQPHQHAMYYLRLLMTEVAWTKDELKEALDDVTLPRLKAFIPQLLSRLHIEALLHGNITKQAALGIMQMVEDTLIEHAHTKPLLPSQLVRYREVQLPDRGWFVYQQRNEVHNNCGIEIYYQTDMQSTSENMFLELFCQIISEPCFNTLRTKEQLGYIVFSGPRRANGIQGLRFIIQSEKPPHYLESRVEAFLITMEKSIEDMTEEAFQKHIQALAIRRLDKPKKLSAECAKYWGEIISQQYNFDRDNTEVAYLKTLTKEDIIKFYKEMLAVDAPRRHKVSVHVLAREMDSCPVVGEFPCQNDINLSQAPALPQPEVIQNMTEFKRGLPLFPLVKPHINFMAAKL
Description: recombinant IDE activation, cell-free – biochemical, fluorescence polarization, counter-screen for IDE activator project, dose response (AID 588681).

SMILES strings stand for the structures. The source made the active and inactive calls.

Chain of Casein kinase I isoform alpha (P48729 whole entry, canonical isoform): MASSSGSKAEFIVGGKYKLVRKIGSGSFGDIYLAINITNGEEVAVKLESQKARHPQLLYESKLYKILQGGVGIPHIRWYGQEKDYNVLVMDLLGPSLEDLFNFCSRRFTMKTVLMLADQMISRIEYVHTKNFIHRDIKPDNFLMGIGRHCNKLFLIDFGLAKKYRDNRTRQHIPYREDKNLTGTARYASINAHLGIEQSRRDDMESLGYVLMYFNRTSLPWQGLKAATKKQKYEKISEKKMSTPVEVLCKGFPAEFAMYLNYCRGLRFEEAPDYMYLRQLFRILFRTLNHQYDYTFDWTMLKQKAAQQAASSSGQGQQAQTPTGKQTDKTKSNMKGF
Chain of Mitogen-activated protein kinase 8 (P45983 whole entry, canonical isoform): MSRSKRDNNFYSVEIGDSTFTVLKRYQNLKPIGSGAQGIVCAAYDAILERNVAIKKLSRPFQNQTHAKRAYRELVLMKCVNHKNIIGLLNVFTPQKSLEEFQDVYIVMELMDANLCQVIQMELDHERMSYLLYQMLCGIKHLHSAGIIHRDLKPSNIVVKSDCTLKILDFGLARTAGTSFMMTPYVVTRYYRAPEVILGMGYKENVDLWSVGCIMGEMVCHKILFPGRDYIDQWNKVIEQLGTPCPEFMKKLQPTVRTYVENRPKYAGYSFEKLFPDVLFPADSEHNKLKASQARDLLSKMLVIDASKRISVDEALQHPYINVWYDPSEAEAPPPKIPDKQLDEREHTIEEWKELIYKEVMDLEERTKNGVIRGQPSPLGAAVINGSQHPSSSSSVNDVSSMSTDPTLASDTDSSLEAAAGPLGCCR

`O=C(NNc1cc(N2CCCC2)nc(N2CCCC2)n1)c1ccc([N+](=O)[O-])cc1`: the IC50 (as a rule, the concentration that gives 50% inhibition) in assay [1] is 2550 nM (active).

In the case of `O=C(Cc1cccs1)Nc1nc2ccccc2s1`, the inhibition constant Ki (usually a dissociation constant, usually derived from enzyme kinetics or from competition with a known ligand) in assay [2] is 1000 nM (active); in assay [3], 631 nM (active).

For `O=S(=O)(O)c1cccc2c(N=Nc3ccc(O)c4ncccc34)cccc12`, at Insulin-degrading enzyme, the EC50 (usually the concentration needed to bring the measured effect to its halfway point) is 17300 nM (inactive).
